Some test systems named below: HCT-116 colon; HOP-62 NSCLC; LOX IMVI melanoma; MALME-3M melanoma; NCI-H226 lung; NCI-H23 lung; RXF 393 renal; SF-539 CNS; SW-620 colon.
Holding throughout (experiment): NCI-60 cell line screen, 48 h

Several values for one entry are separate records, joined by “and”; a condition that tells them apart may be missing. Equal values may be shown once.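 All cell lines were grown in 96-well plates and treated with compound for 48 hours. Abbreviation: GI50, concentration required for 50% inhibition of growth. At the TGI there is no net growth.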

Take `CC1(C)CCC(CN2CCN(c3ccc(C(=O)NS(=O)(=O)c4ccc(NCC5CCOCC5)c([N+](=O)[O-])c4)c(Oc4cnc5[nH]ccc5c4)c3)CC2)=C(c2ccc(Cl)cc2)C1`: the GI50 in the test on HCT-116 colon is 3.36 µM; in the test on HOP-62 NSCLC, 4.1 µM; with LOX IMVI melanoma, 2.21 µM; in the test on MALME-3M melanoma, 1.82 µM; with NCI-H226 lung it was 2.36 µM; in the test on NCI-H23 lung, 3.13 µM. The GI50 in the test with RXF 393 renal is 1.57 µM; with SF-539 CNS, 2.41 µM; in the test on SW-620 colon, 3.95 µM. Besides, the TGI is 11.8 µM with HCT-116 colon; 15.8 µM in the test on HOP-62 NSCLC; 4.85 µM in the test on LOX IMVI melanoma; 3.64 µM in the test on MALME-3M melanoma; 6.9 µM in the test with NCI-H226 lung; 12.5 µM with NCI-H23 lung. The results for the TGI in the test with RXF 393 renal, in the test with SF-539 CNS and with SW-620 colon were 3.48 µM, 5.62 µM and 16.8 µM, respectively.

With `CC1OC(OC2C(OC3CCC4(C)C(CCC5(C)C4CC=C4C6CC(C)(C)CCC6(CO)C(O)CC45C)C3(C)C)OC(C(=O)O)C(OC3OC(COC4OC(CO)C(O)C(O)C4O)C(O)C(O)C3O)C2O)C(O)C(O)C1O` (stereo unspecified), the GI50 is 2.05 µM with HCT-116 colon; 14.8 µM in the test with HOP-62 NSCLC; 10.7 µM in the test with LOX IMVI melanoma; 7.58 µM in the test on MALME-3M melanoma; 3.35 µM in the test on NCI-H226 lung; 1.77 µM with NCI-H23 lung. Also, the GI50 is 8.94 µM in the test with RXF 393 renal, 8.48 µM with SF-539 CNS and 12.5 µM in the test with SW-620 colon. Besides, the TGI with HCT-116 colon stood at 9.21 µM; with HOP-62 NSCLC, 30.9 µM; in the test with LOX IMVI melanoma it was 21.6 µM; in the test on MALME-3M melanoma, 18.8 µM; in the test with NCI-H226 lung, 16.1 µM; in the test with NCI-H23 lung it was 4.67 µM. The TGI was determined as 19.8 µM with RXF 393 renal, 20.5 µM in the test on SF-539 CNS and 24.2 µM with SW-620 colon.

For `COc1cc(C2c3cc4c(cc3[C@@H](OCCN)[C@H]3COC(=O)C23)OCO4)cc(OC)c1O` (stereo partly specified), the TGI with HCT-116 colon was 4.89 µM; with HOP-62 NSCLC it was 0.34 µM; in the test on LOX IMVI melanoma it was 0.395 µM; with MALME-3M melanoma, 1.59 µM; with NCI-H226 lung, 0.933 µM; in the test with NCI-H23 lung, 0.731 µM. Besides, the TGI with RXF 393 renal stood at 2.35 µM; in the test on SF-539 CNS it was 0.345 µM; in the test with SW-620 colon, 2.45 µM.

As to `CCN1N=CSC12C(=O)N(c1ccccc1)C(=O)N2c1ccccc1` (stereo unspecified), the TGI with HCT-116 colon, with HOP-62 NSCLC, with LOX IMVI melanoma, in the test with MALME-3M melanoma, in the test with NCI-H226 lung and with NCI-H23 lung was > 100 µM each time. Moreover, the TGI in the test with RXF 393 renal, in the test with SF-539 CNS and with SW-620 colon was > 100 µM in each case.

In the case of `O=[N+]([O-])c1ccc([I+]c2ccccc2)cc1`, the GI50 was 1.83 µM with HCT-116 colon; 1.56 µM in the test on HOP-62 NSCLC; 0.583 µM with LOX IMVI melanoma; 1.31 µM in the test with MALME-3M melanoma; 1.45 µM with NCI-H226 lung; 1.23 µM with NCI-H23 lung. In addition, the GI50 with RXF 393 renal is 1.87 µM; with SF-539 CNS it was 1.77 µM; with SW-620 colon, 1.85 µM. For the same molecule, the TGI with HCT-116 colon was 17.5 µM and 3.8 µM; in the test with HOP-62 NSCLC it was 25.6 µM and 3.3 µM; in the test with LOX IMVI melanoma, 1.99 µM; in the test on MALME-3M melanoma, 11.2 µM and 3.54 µM; in the test with NCI-H226 lung it was 19.1 µM and 3.2 µM; in the test on NCI-H23 lung it was 5.98 µM and 2.74 µM. In addition, the TGI in the test on RXF 393 renal is 10.8 µM and 3.76 µM; in the test on SF-539 CNS, 14.3 µM and 3.47 µM; in the test on SW-620 colon it was 12.2 µM and 4.31 µM.

Take `COc1ccc(C2=NN(c3ccc(S(N)(=O)=O)cc3)C(c3ccc(Cl)cc3)C2)c(O)c1` (stereo unspecified): the GI50 in the test with HCT-116 colon is 2.32 µM; in the test on HOP-62 NSCLC it was 9.35 µM; in the test with LOX IMVI melanoma it was 4.83 µM; in the test on MALME-3M melanoma, 4.03 µM; in the test with NCI-H226 lung, 5.6 µM; in the test on NCI-H23 lung, 3.32 µM. For the same molecule, the GI50 was 2.53 µM with RXF 393 renal, 10.1 µM in the test with SF-539 CNS and 3.68 µM in the test with SW-620 colon. In addition, the TGI in the test on HCT-116 colon is 8.63 µM; in the test with HOP-62 NSCLC it was 28.5 µM; with LOX IMVI melanoma, 17 µM; with MALME-3M melanoma it was 16.7 µM; in the test on NCI-H226 lung it was 19.3 µM; in the test with NCI-H23 lung it was 13.7 µM. Moreover, the TGI with RXF 393 renal is 9.78 µM; in the test on SF-539 CNS, 22.3 µM; with SW-620 colon, 14.8 µM.

Regarding `C/C=C(\C)C(=O)O[C@@H]1C=CC(=O)O[C@H]1COC(=O)[C@H](C)O`, the GI50 in the test with HCT-116 colon is 3.39 µM; in the test with HOP-62 NSCLC it was 16.8 µM; with LOX IMVI melanoma, 9.64 µM; in the test on MALME-3M melanoma, 12.1 µM; in the test on NCI-H226 lung, 14.7 µM; in the test with NCI-H23 lung, 18.4 µM. Moreover, the figures for the GI50 in the test on RXF 393 renal, with SF-539 CNS and with SW-620 colon were 6.51 µM, 16.5 µM and 4.79 µM, respectively. Further, the TGI was 12.2 µM with HCT-116 colon; 33.3 µM in the test with HOP-62 NSCLC; 22.2 µM with LOX IMVI melanoma; 25.9 µM in the test on MALME-3M melanoma; 44.7 µM with NCI-H226 lung; 50.6 µM in the test on NCI-H23 lung. The results for the TGI in the test on RXF 393 renal, in the test with SF-539 CNS and in the test on SW-620 colon were 30 µM, 59.4 µM and 15.9 µM, respectively.

Take `O=C(O)Cc1ccccc1`: the GI50 with HCT-116 colon, with HOP-62 NSCLC, in the test on LOX IMVI melanoma, in the test with MALME-3M melanoma, in the test on NCI-H226 lung and in the test with NCI-H23 lung was > 1000 µM throughout. In addition, the GI50 in the test on RXF 393 renal, in the test with SF-539 CNS and in the test with SW-620 colon was > 1000 µM in each case. Besides, the TGI is > 1000 µM in the test on HCT-116 colon; > 2000 µM in the test with HOP-62 NSCLC; > 2000 µM in the test with LOX IMVI melanoma; > 1000 µM and 1970 µM in the test on MALME-3M melanoma; > 2000 µM in the test with NCI-H226 lung; > 2000 µM in the test with NCI-H23 lung. Further, the TGI in the test with RXF 393 renal is > 1000 µM and 1940 µM; in the test on SF-539 CNS it was > 2000 µM; in the test on SW-620 colon, > 2000 µM.

These data come from PubChem BioAssay (NCI).
